Results from US10519145B2, “Pyrazole-oxazolidinone compound for anti-hepatitis B virus” (Shanghai Zhimeng Biopharma Co., Ltd., priority 2016, dated 2019).

Legend:
[1] = tested on: nucleoside drug-resistant HBV strain M204I + V173L; test: In vitro anti-nucleoside drug-resistant HBV strain activity experiment, transient transfection; assay type: cell-based; conditions: Hepatitis B virus, HepG2, 192 h
Protocol: (§1) Compounds were tested for in vitro activity against nucleoside drug-resistant HBV strains using a transient transfection cell model. HepG2 cells (4×10^4 cells/well) that had been transfected with nucleoside drug-resistant HBV strains were seeded into 96-well plates and cultured overnight at 37° C. in 5% CO2. The next day, fresh cultures containing compounds in different concentrations were added into the culture wells. On the fifth day, the old culture medium in the culture wells was aspirated and removed. The fresh medium containing compounds in different concentrations was added. On the eighth day, supernatants in the culture wells were collected and used to extract HBV DNA in the supernatant. qPCR assay was used to detect HBV DNA content in the HepG2 supernatant.

[2] = tested on: nucleoside drug-resistant HBV strain M204I + S202G; test: as above; assay type: cell-based; conditions: Hepatitis B virus, HepG2, 192 h
Protocol: as §1

[3] = tested on: nucleoside drug-resistant HBV strain L180M + M204V; test: as above; assay type: cell-based; conditions: Hepatitis B virus, HepG2, 192 h
Protocol: as §1

[4] = tested on: nucleoside drug-resistant HBV strain M204I + S202G + M250V; test: as above; assay type: cell-based; conditions: Hepatitis B virus, HepG2, 192 h
Protocol: as §1

[5] = tested on: HBV strain U95551 (WT); test: as above; assay type: cell-based; conditions: Hepatitis B virus, transfected HepG2 cells
Protocol: as §1

[6] = tested on: nucleoside drug-resistant HBV strain M204I; test: as above; assay type: cell-based; conditions: Hepatitis B virus, HepG2
Protocol: as §1

[7] = tested on: HBV genotype AB246345 (C); test: Anti-different genotypic HBV strain activity assay in vitro, transient transfection; assay type: cell-based; conditions: Hepatitis B virus, HepG2
Protocol: (§2) Compounds were tested for in vitro activity against different genotypic HBV strains using a transient transfection cell model. HepG2 cells (4×10^4 cells/well) that had been transfected with different HBV genotypic strains were seeded into 96-well plates and cultured overnight at 37° C. in 5% CO2. The next day, fresh cultures containing compounds in different concentrations were added into the culture wells. On the fifth day, the old culture medium in the culture wells was aspirated and removed. The fresh medium containing compounds in different concentrations was added. On the eighth day, supernatants in the culture wells were collected and used to extract HBV DNA in the supernatant. qPCR assay was used to detected HBV DNA content in the HepG2 supernatant.

[8] = tested on: HBV genotype HE974371 (A2); test: as above; assay type: cell-based; conditions: Hepatitis B virus, HepG2
Protocol: as §2

[9] = tested on: HBV genotype U95551 (D); test: as above; assay type: cell-based; conditions: Hepatitis B virus, HepG2
Protocol: as §2

[10] = tested on: HBV genotype AP007263 (A); test: as above; assay type: cell-based; conditions: Hepatitis B virus, HepG2
Protocol: as §2

[11] = tested on: HBV genotype AB246346 (C); test: as above; assay type: cell-based; conditions: Hepatitis B virus, HepG2
Protocol: as §2

[12] = tested on: HBV genotype AB033554 (B); test: as above; assay type: cell-based; conditions: Hepatitis B virus, HepG2
Protocol: as §2

[13] = tested on: HBV genotype JN406371 (B); test: as above; assay type: cell-based; conditions: Hepatitis B virus, HepG2
Protocol: as §2

[14] = tested on: HBV (HepG2.2.15 cells); test: Anti-HBV activity experiment in vitro (HepG2.2.15, HBV DNA in supernatant, qPCR); assay type: cell-based; conditions: Hepatitis B virus, HBV DNA in supernatant by qPCR, eighth day
Protocol: Compound Dilution: initial concentrations of all compounds used in the anti-HBV activity experiments in vitro were 1 μM, 3-fold diluted into 8 concentrations; initial concentrations of all compounds used in the cytotoxicity assay were 100 μM, 3-fold diluted into 8 concentrations; and the mother liquor of the compound was diluted with DMSO.
Anti-HBV Activity Experiment In Vitro: HepG2.2.15 cells (4×10^4 cells/well) were seeded in 96-well plates and cultured overnight at 37° C. in 5% CO2. The next day, fresh cultures containing compounds in different concentrations were added into the culture wells. On the fifth day, the old culture medium in the culture wells was aspirated and removed. Fresh medium containing compounds in different concentrations was added. On the eighth day, supernatants in the culture wells were collected and used to extract HBV DNA in the supernatant. qPCR assay was used to detect HBV DNA content in the HepG2.2.15 supernatant.
The data analysis and the percentage of inhibition calculation: the percentage of inhibition was calculated by using the following formula: Inhibition %=[(HBV amount in DMSO control−HBV amount in sample)/HBV amount in DMSO control]×100%.

[15] = Pharmacokinetic determination in mice (subcutaneous); assay type: in vivo; conditions: sc, female BALB/c mouse, single administration, plasma
Protocol: In addition, the pharmacokinetics of the compound of Example 3 (R isomer) in the present application was determined in mice.
Test compounds were subcutaneously administered to female BALB/c mouse once and blood samples were taken at different time points. LC/MS/MS was used to determine the concentration of the test compounds in the […] plasma after administration of the test compounds and calculate relevant parameters.
Animal blood collection time points were: before administration, 5 min, […], 30 min, 1 h, 2 h, 4 h, 8 h and 24 h after administration.
Mass Spectrometer: Triple Quad 5500. Mass Spectrometry Conditions: SRM Detection
Liquid phase conditions: Column: XSELECT CSHTM XP C18 (2.1×50 mm, 2.5 μm); chromatographic mobile phase: mobile phase A: 0.025% FA & 1 mM NH4OAc in water/CAN solution (v:v, 95: 5), mobile phase B: 0.025% FA & 1 mM NH4OAc in ACN/water solution (v:v, 95: 5) (A:B =65%: 35%-10%: 90%); flow rate: 0.6 mL/min; column temperature: 50° C.
According to the drug blood concentration data, the pharmacokinetic parameters of the test compound were calculated using the pharmacokinetic calculation software WinNonlin 5.2 non-compartmental model.

[16] = tested on: HBV DNA in mouse plasma; test: Determination of pharmacodynamics in vivo (high pressure tail vein injection of HBV DNA); conditions: 25 mpk, intraperitoneal daily
Protocol: High pressure injection of HBV DNA in tail vein and administration methods:
HBV plasmid DNA solution was high-pressure injected via the tail veins of the mouse: the plasmid DNA was pre-dissolved in physiological saline (10 μg/1.4 ml, 10 μg/1.5 ml) before injection and stored at 4 until its use. The mice were injected with a plasmid DNA solution at a dosage of 8% of the body weight from the tail vein in 5 seconds. If the injection volume is less than or equal to 1.4 ml, 10 μg/1.4 ml of plasmid solution was used; if the injection volume is greater than or equal to 1.5 ml, 10 μg/1.5 ml of plasmid solution was used.
On 1st-7th day, the mice were continuously injected intraperitoneally with the test compound or solvent for 7 days. […] The plasma was divided into two and one was sent to anti-infective groups in the Department of Biology for HBV DNA detection, and the other was ready for use. […]
Quantitative PCR was used to detect the content of HBV DNA in mouse plasma. […]
Quantitative PCR detection of HBV DNA content: In order to rule out possible interference with injected HBV plasmid DNA, two sets of primers and probes were used simultaneously for the assay. […]
HBV DNA content =DNA content detected by HBV primers - DNA content detected by pAAV2 primers

Row | Compound | EC50 [1] | EC50 [2] | EC50 [3] | EC50 [4] | EC50 [5] | EC50 [6] | EC50 [7] | EC50 [8] | EC50 [9] | EC50 [10] | EC50 [11] | EC50 [12] | EC50 [13] | further results
1 | Nc1ccn([C@@H]2CS[C@H](CO)O2)c(=O)n1 [Lamivudine, 3′-thio-2′,3′-dideoxycytidine, reference compound] | > 100000 nM | > 100000 nM | > 100000 nM | > 100000 nM | 94.9 nM | > 100000 nM | 97.2 nM | 136 nM | 123 nM | 136 nM | 128 nM | 156 nM | 112 nM | 
2 | O=C1CO[C@H](c2cn(-c3ccc(Br)cc3)nc2-c2ccc(F)cc2)N1CCc1ccc2[nH]c(=O)[nH]c2c1 [example 3 R isomer, (R)-3-(2-(2-oxo-2,3-dihydro-1H-benzo[d]imidazol-5-yl)ethyl)-2-(1-(4-bromophenyl)-3-(4-fluorophenyl)-1H-pyrazol-4-yl)-oxazolidin-4-one] | 14 nM | 11.6 nM | 18.9 nM | 13.6 nM | 19.1 nM | 21.2 nM | 6.26 nM | 4.67 nM | 14.4 nM | 33.9 nM | 14.6 nM | 13.6 nM | 8.69 nM | EC50 [14]: 7.68 nM; AUC(0-inf) [15]: 2080 ng·h/mL; Cmax [15]: 643 ng/mL; Tmax [15]: 1.33 h; half-life [15]: 1.19 h; MRT inf ([15]; read-out: MRT0-inf): 2.4 h; decrease of HBV DNA content in mouse plasma ([16]; 1st day): 0.55 log; decrease of HBV DNA content in mouse plasma ([16]; 3rd day): 1.84 log
